Reference: patent US12077503B2, “Substituted cyclic amides and their use as herbicides” (FMC CORPORATION, priority 2015, dated 2024)

Assays:
Format in all cases: in vivo
[1] = system: barnyardgrass (Echinochloa crus-galli); experiment: Test G Pre-Emergence Protocol; conditions: Echinochloa crus-galli, pre-emergence, 312 h, evaluated after 13 days; for pest or weed control at 15.625 g/ha: 15.625 g ai/ha, read-out: Barnyard grass damage rating (100=total damage to plant; 0=no damage to plant); for pest or weed control at 62.5 g/ha: 62.5 g ai/ha, 100=total damage to plant, 0=no damage to plant, read-out: plant damage rating, Barnyardgrass; for pest or weed control at 250 g/ha: 250 g ai/ha, read-out: Barnyardgrass damage rating (100=total damage to plant; 0=no damage to plant)
Method in brief: (§1)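 Pots of seeds in standard soil were grown for one day in a glasshouse (24/16 °C day/night, 14 h light, 65% humidity), then sprayed with compound in acetone/water 50:50 with 0.5% Tween 20 at 15.625, 62.5 or 250 g/ha. Damage was scored after 13 days on a 0 (none) to 100 (total) scale.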

corn (Zea mays) [2] = experiment: Test G Pre-Emergence Protocol; conditions: Zea mays, pre-emergence, 312 h, evaluated after 13 days; for plant injury at 15.625 g/ha: 15.625 g ai/ha; for plant injury at 15.625 g/ha / plant injury at 250 g/ha: read-out: Corn damage rating (100=total damage to plant; 0=no damage to plant); for plant injury at 62.5 g/ha: 62.5 g ai/ha, 100=total damage to plant, 0=no damage to plant, read-out: plant damage rating, Corn; for plant injury at 250 g/ha: 250 g ai/ha
Method in brief: as §1

[3] = system: giant foxtail (Setaria faberi); experiment: Test G Pre-Emergence Protocol; conditions: Setaria faberi, pre-emergence, 312 h, evaluated after 13 days; for pest or weed control at 15.625 g/ha: 15.625 g ai/ha; for pest or weed control at 15.625 g/ha / pest or weed control at 250 g/ha: read-out: Foxtail, Giant damage rating (100=total damage to plant; 0=no damage to plant); for pest or weed control at 62.5 g/ha: 62.5 g ai/ha, 100=total damage to plant, 0=no damage to plant, read-out: plant damage rating, Foxtail, Giant; for pest or weed control at 250 g/ha: 250 g ai/ha
Method in brief: as §1

[4] = system: ivy-leaved morning glory (Ipomoea hederacea); experiment: Test G Pre-Emergence Protocol; conditions: Ipomoea, pre-emergence, 312 h, evaluated after 13 days; for pest or weed control at 15.625 g/ha: 15.625 g ai/ha, read-out: Morning-glory, Ivy-leaved damage rating (100=total damage to plant; 0=no damage to plant); for pest or weed control at 62.5 g/ha: 62.5 g ai/ha, 100=total damage to plant, 0=no damage to plant, read-out: plant damage rating, Morningglory, Ivy-leaved; for pest or weed control at 250 g/ha: 250 g ai/ha, read-out: Morningglory, Ivy-leaved damage rating (100=total damage to plant; 0=no damage to plant)
Method in brief: as §1

[5] = system: redroot pigweed (Amaranthus retroflexus); experiment: Test G Pre-Emergence Protocol; conditions: Amaranthus retroflexus, pre-emergence, 312 h, evaluated after 13 days; for pest or weed control at 15.625 g/ha: 15.625 g ai/ha; for pest or weed control at 15.625 g/ha / pest or weed control at 250 g/ha: read-out: Pigweed, Redroot damage rating (100=total damage to plant; 0=no damage to plant); for pest or weed control at 62.5 g/ha: 62.5 g ai/ha, 100=total damage to plant, 0=no damage to plant, read-out: plant damage rating, Pigweed, Redroot; for pest or weed control at 250 g/ha: 250 g ai/ha
Method in brief: as §1

[6] = system: velvetleaf (Abutilon theophrasti); experiment: Test G Pre-Emergence Protocol; conditions: Abutilon theophrasti, pre-emergence, 312 h, evaluated after 13 days; for pest or weed control at 15.625 g/ha: 15.625 g ai/ha; for pest or weed control at 15.625 g/ha / pest or weed control at 250 g/ha: read-out: Velvetleaf damage rating (100=total damage to plant; 0=no damage to plant); for pest or weed control at 62.5 g/ha: 62.5 g ai/ha, 100=total damage to plant, 0=no damage to plant, read-out: plant damage rating, Velvetleaf; for pest or weed control at 250 g/ha: 250 g ai/ha
Method in brief: as §1

[7] = system: barnyardgrass (Echinochloa crus-galli); experiment: Test G Post-Emergence Protocol; conditions: Echinochloa crus-galli, post-emergence, 312 h; for pest or weed control at 15.625 g/ha: 15.625 g ai/ha, evaluated after 13 days (100=total damage to plant; 0=no damage to plant), read-out: Barnyardgrass damage rating; for pest or weed control at 62.5 g/ha: 62.5 g ai/ha, read-out: Barnyardgrass damage rating (100=total damage to plant; 0=no damage to plant); for pest or weed control at 62.5 g/ha / pest or weed control at 250 g/ha: evaluated after 13 days; for pest or weed control at 250 g/ha: 250 g ai/ha, read-out: damage to plant, Barnyardgrass (100=total damage to plant; 0=no damage to plant)
Method in brief: (§2)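 Damage was rated 13 days after treatment from 0 (none) to 100 (plant killed). Compound was applied as a spray at 15.625, 62.5 or 250 g/ha in 50:50 acetone/water containing 0.5% Tween 20, onto 8-day-old potted plants kept in a glasshouse (24/16 °C, 14 h light, 65% humidity).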

corn (Zea mays) [8] = experiment: Test G Post-Emergence Protocol; conditions: Zea mays, post-emergence, 312 h; for plant injury at 15.625 g/ha: 15.625 g ai/ha, evaluated after 13 days (100=total damage to plant; 0=no damage to plant), read-out: Corn damage rating; for plant injury at 62.5 g/ha: 62.5 g ai/ha, read-out: Corn damage rating (100=total damage to plant; 0=no damage to plant); for plant injury at 62.5 g/ha / plant injury at 250 g/ha: evaluated after 13 days; for plant injury at 250 g/ha: 250 g ai/ha, read-out: damage to plant, Corn (100=total damage to plant; 0=no damage to plant)
Method in brief: as §2

[9] = system: giant foxtail (Setaria faberi); experiment: Test G Post-Emergence Protocol; conditions: Setaria faberi, post-emergence, 312 h; for pest or weed control at 15.625 g/ha: 15.625 g ai/ha, evaluated after 13 days (100=total damage to plant; 0=no damage to plant), read-out: Foxtail, Giant damage rating; for pest or weed control at 62.5 g/ha: 62.5 g ai/ha, read-out: Foxtail, Giant damage rating (100=total damage to plant; 0=no damage to plant); for pest or weed control at 62.5 g/ha / pest or weed control at 250 g/ha: evaluated after 13 days; for pest or weed control at 250 g/ha: 250 g ai/ha, read-out: damage to plant, Foxtail, Giant (100=total damage to plant; 0=no damage to plant)
Method in brief: as §2

[10] = system: ivy-leaved morning glory (Ipomoea hederacea); experiment: Test G Post-Emergence Protocol; conditions: Ipomoea, post-emergence, 312 h; for pest or weed control at 15.625 g/ha: 15.625 g ai/ha, evaluated after 13 days (100=total damage to plant; 0=no damage to plant), read-out: Morningglory, Ivy-leaved damage rating; for pest or weed control at 62.5 g/ha: 62.5 g ai/ha, read-out: Morningglory, Ivy-leaved damage rating (100=total damage to plant; 0=no damage to plant); for pest or weed control at 62.5 g/ha / pest or weed control at 250 g/ha: evaluated after 13 days; for pest or weed control at 250 g/ha: 250 g ai/ha, read-out: damage to plant, Morningglory, Ivy-leaved (100=total damage to plant; 0=no damage to plant)
Method in brief: as §2

[11] = system: redroot pigweed (Amaranthus retroflexus); experiment: Test G Post-Emergence Protocol; conditions: Amaranthus retroflexus, post-emergence, 312 h; for pest or weed control at 15.625 g/ha: 15.625 g ai/ha, evaluated after 13 days (100=total damage to plant; 0=no damage to plant), read-out: Pigweed, Redroot damage rating; for pest or weed control at 62.5 g/ha: 62.5 g ai/ha, read-out: Pigweed, Redroot damage rating (100=total damage to plant; 0=no damage to plant); for pest or weed control at 62.5 g/ha / pest or weed control at 250 g/ha: evaluated after 13 days; for pest or weed control at 250 g/ha: 250 g ai/ha, read-out: damage to plant, Pigweed, Redroot (100=total damage to plant; 0=no damage to plant)
Method in brief: as §2

[12] = system: velvetleaf (Abutilon theophrasti); experiment: Test G Post-Emergence Protocol; conditions: Abutilon theophrasti, post-emergence, 312 h; for pest or weed control at 15.625 g/ha: 15.625 g ai/ha, evaluated after 13 days (100=total damage to plant; 0=no damage to plant), read-out: Velvetleaf damage rating; for pest or weed control at 62.5 g/ha: 62.5 g ai/ha, read-out: Velvetleaf damage rating (100=total damage to plant; 0=no damage to plant); for pest or weed control at 62.5 g/ha / pest or weed control at 250 g/ha: evaluated after 13 days; for pest or weed control at 250 g/ha: 250 g ai/ha, read-out: damage to plant, Velvetleaf (100=total damage to plant; 0=no damage to plant)
Method in brief: as §2

Structure (SMILES) | pest or weed control at 15.625 g/ha [1] [%] | pest or weed control at 62.5 g/ha [1] [%] | pest or weed control at 250 g/ha [1] [%] | plant injury at 15.625 g/ha (corn (Zea mays) [2]) [%] | plant injury at 62.5 g/ha (corn (Zea mays) [2]) [%] | plant injury at 250 g/ha (corn (Zea mays) [2]) [%] | pest or weed control at 15.625 g/ha [3] [%] | pest or weed control at 62.5 g/ha [3] [%] | pest or weed control at 250 g/ha [3] [%] | pest or weed control at 15.625 g/ha [4] [%] | pest or weed control at 62.5 g/ha [4] [%] | pest or weed control at 250 g/ha [4] [%] | pest or weed control at 15.625 g/ha [5] [%] | pest or weed control at 62.5 g/ha [5] [%] | pest or weed control at 250 g/ha [5] [%] | pest or weed control at 15.625 g/ha [6] [%] | pest or weed control at 62.5 g/ha [6] [%] | pest or weed control at 250 g/ha [6] [%] | pest or weed control at 15.625 g/ha [7] [%] | pest or weed control at 62.5 g/ha [7] [%] | further results
Cc1onc(NC(=O)[C@@H]2C(=O)N(C)C[C@H]2c2ccc(C(F)(F)F)cc2)c1Cl (racemic) [Compound 1580] | 0 | 0 | 0 | 0 | 0 | 0 | 0 | 0 | 0 | 0 | 0 | 0 | 0 | 0 | 0 | 0 | 0 | 0 | 0 | 0 | pest or weed control at 250 g/ha [7]: 0%; plant injury at 15.625 g/ha (corn (Zea mays) [8]): 0%; plant injury at 62.5 g/ha (corn (Zea mays) [8]): 0%; plant injury at 250 g/ha (corn (Zea mays) [8]): 0%; pest or weed control at 15.625 g/ha [9]: 0%; pest or weed control at 62.5 g/ha [9]: 0%; pest or weed control at 250 g/ha [9]: 0%; pest or weed control at 15.625 g/ha [10]: 0%; pest or weed control at 62.5 g/ha [10]: 0%; pest or weed control at 250 g/ha [10]: 0%; pest or weed control at 15.625 g/ha [11]: 0%; pest or weed control at 62.5 g/ha [11]: 0%; pest or weed control at 250 g/ha [11]: 0%; pest or weed control at 15.625 g/ha [12]: 0%; pest or weed control at 62.5 g/ha [12]: 0%; pest or weed control at 250 g/ha [12]: 0%
Cc1n[nH]c(NC(=O)[C@@H]2C(=O)N(C)C[C@H]2c2ccc(C(F)(F)F)cc2)c1C#N (racemic) [Compound 1582] | 0 | 0 | 0 | 0 | 0 | 0 | 0 | 0 | 0 | 0 | 0 | 0 | 0 | 0 | 0 | 0 | 0 | 0 | 0 | 0 | pest or weed control at 250 g/ha [7]: 0%; plant injury at 15.625 g/ha (corn (Zea mays) [8]): 0%; plant injury at 62.5 g/ha (corn (Zea mays) [8]): 0%; plant injury at 250 g/ha (corn (Zea mays) [8]): 0%; pest or weed control at 15.625 g/ha [9]: 0%; pest or weed control at 62.5 g/ha [9]: 0%; pest or weed control at 250 g/ha [9]: 0%; pest or weed control at 15.625 g/ha [10]: 0%; pest or weed control at 15.625 g/ha [11]: 0%; pest or weed control at 62.5 g/ha [11]: 0%; pest or weed control at 250 g/ha [11]: 0%; pest or weed control at 15.625 g/ha [12]: 0%; pest or weed control at 62.5 g/ha [12]: 0%; pest or weed control at 250 g/ha [12]: 0%
CN1C[C@@H](c2ccc(C(F)(F)F)cc2)[C@H](C(=O)Nc2cncnc2)C1=O (racemic) [Compound 1583] | 0 | 0 | 0 | 0 | 0 | 0 | 0 | 0 | 30 | 0 | 0 | 0 | 0 | 0 | 30 | 0 | 0 | 0 | 0 | 0 | pest or weed control at 250 g/ha [7]: 20%; plant injury at 15.625 g/ha (corn (Zea mays) [8]): 0%; plant injury at 62.5 g/ha (corn (Zea mays) [8]): 0%; plant injury at 250 g/ha (corn (Zea mays) [8]): 0%; pest or weed control at 15.625 g/ha [9]: 0%; pest or weed control at 62.5 g/ha [9]: 20%; pest or weed control at 250 g/ha [9]: 10%; pest or weed control at 15.625 g/ha [10]: 0%; pest or weed control at 62.5 g/ha [10]: 10%; pest or weed control at 250 g/ha [10]: 30%; pest or weed control at 15.625 g/ha [11]: 0%; pest or weed control at 62.5 g/ha [11]: 0%; pest or weed control at 250 g/ha [11]: 20%; pest or weed control at 15.625 g/ha [12]: 0%; pest or weed control at 62.5 g/ha [12]: 0%; pest or weed control at 250 g/ha [12]: 20%
